EP3290412A1, “HIV-1 NUCLEOCAPSID INHIBITORS” (Università degli Studi di Siena, priority 2016, dated 2018)

Legend:
[1] = tested on: HIV-1 reference strain NL4-3; experiment: BiCycle assay (MT-2 then TZM-bl cells); format: cell-based; conditions: Human immunodeficiency virus 1, NL43, TZM-bl; for IC50: read-out: BiCycle IC50 nM; for EC50: read-out: Mean EC50 (nM)
In short: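 MT-2 cells were infected with NL4-3 in the presence of five-fold compound dilutions. After 72 h, the supernatant was passed to TZM-bl cells. Two days later, luciferase luminescence was read and IC50 calculated, giving a readout that spans the whole replication cycle.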

ARP clone 11845 (INI) = experiment: BiCycle assay, resistant viral strain; format: cell-based, HIV-1; conditions: IC50 resistant strain / IC50 wild type NL4-3, BiCycle Assay
Procedure: (§1) BiCycle Assay is cell based assay allowing the evaluation of the antiviral activity of HIV-1 inhibitors on the whole replication cycle of HIV-1. The assay consists in a first round of infection of the T-cell line MT-2 followed by infection of TZM-bl cells. MT-2 cells were seeded at a concentration of 50,000 cells/well in a 96-well plate and infected with the HIV-1 reference strain NL4-3 in presence of five-fold dilutions of the investigational compounds. After 72 hours, 50 µl of supernatant from each well, containing the virus produced in the first round of infection, were used to infect TZM-bl cells seeded in a 96-plate well at a concentration of 30,000 cells/well. Two days later, cells were lysed adding 40 µl of Glo Lysis Buffer (Promega) to each well for 5 minutes, then 40 µl of Brighy-Glo Luciferase Reagent (Promega) were added to each well for relative luminescence units (RLU) counting using Glo-Max Multi Detection System (Promega). RLU values from each well were elaborated using the GraphPad v5.0 software to calculate the IC50 of each compound.
(§2) The antiviral activity of some of the compounds listed in Table 3 was further evaluated determining the IC50 with viruses carrying resistant mutations that reduce the susceptibility to drugs currently employed in clinical practice to treat HIV infection. The resistant viruses were obtained through the NIH AIDS Reagent Program (www.aidsreagent.org) and have been already characterized by the Phenosense Assay (Monogram Biosciences), considered as the reference assay for phenotypic investigation of HIV drug resistance due to its large application in clinical trials.
(§3) IC50 values of resistant viral strains were determined by using the BiCycle Assay as previously described. The results of the analysis are summarized in Table 6, where fold change values are calculated as the ratio between the IC50 values of resistant HIV-1 strains and the IC50 value of the wild type reference HIV-1 strain NL4-3. Table 6. Fold change values of resistant viral strains

ARP clone 11808 (PI) = experiment: BiCycle assay, resistant viral strain; format: cell-based, HIV-1; conditions: IC50 resistant strain / IC50 wild type NL4-3, BiCycle Assay
Procedure: as §1, §2, §3

ARP clone 12231 (NNRTI) = experiment: BiCycle assay, resistant viral strain; format: cell-based, HIV-1; conditions: IC50 resistant strain / IC50 wild type NL4-3, BiCycle Assay
Procedure: as §1, §2, §3

ARP clone 12465 (PI) = experiment: BiCycle assay, resistant viral strain; format: cell-based, HIV-1; conditions: IC50 resistant strain / IC50 wild type NL4-3, BiCycle Assay
Procedure: as §1, §2, §3

ARP clone 12229 (NNRTI) = experiment: BiCycle assay, resistant viral strain; format: cell-based, HIV-1; conditions: IC50 resistant strain / IC50 wild type NL4-3, BiCycle Assay
Procedure: as §1, §2, §3

ARP clone 7400 (NRTI) = experiment: BiCycle assay, resistant viral strain; format: cell-based, HIV-1; conditions: IC50 resistant strain / IC50 wild type NL4-3, BiCycle Assay
Procedure: as §1, §2, §3

ARP clone 7401 (NRTI) = experiment: BiCycle assay, resistant viral strain; format: cell-based, HIV-1; conditions: IC50 resistant strain / IC50 wild type NL4-3, BiCycle Assay
Procedure: as §1, §2, §3

ARP clone 11842 (INI) = experiment: BiCycle assay, resistant viral strain; format: cell-based, HIV-1; conditions: IC50 resistant strain / IC50 wild type NL4-3, BiCycle Assay
Procedure: as §1, §2, §3

NC(11-55) = NC(11-55) (Human immunodeficiency virus type 1, UniProt P12493); experiment: NC inhibition assay (NC-induced cTAR DNA destabilization, fluorescence); format: biochemical, HIV-1; conditions: for inhibition at 100 µM: single point screening, positive = >25% inhibition at 100µM
In short: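 Doubly labelled cTAR (0.1 µM, Alexa488/Dabcyl) pre-complexed with 1 µM Zn-loaded NC(11-55) for 15 min, then compound added for a further 15 min; run at 20 °C in Tris-HCl pH 7.5, 30 mM NaCl, 0.2 mM MgCl2. Fluorescence read at ex 480/em 520 nm. IC50 taken from dose-response fit of % inhibition of NC-induced fluorescence increase.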

| SMILES | IC50 [1] | EC50 [1] | Fold change 11845 (INI) (ARP clone 11845 (INI)) | Fold change 11808 (PI) (ARP clone 11808 (PI)) | Fold change 12231 (NNRTI) (ARP clone 12231 (NNRTI)) | Fold change 12465 (PI) (ARP clone 12465 (PI)) | Fold change 12229 (NNRTI) (ARP clone 12229 (NNRTI)) | Fold change 7400 (NRTI) (ARP clone 7400 (NRTI)) | Fold change 7401 (NRTI) (ARP clone 7401 (NRTI)) | Fold change 11842 (INI) (ARP clone 11842 (INI)) | IC50 (NC(11-55)) | inhibition at 100 µM (NC(11-55)) |
| --- | --- | --- | --- | --- | --- | --- | --- | --- | --- | --- | --- | --- |
| Cc1cccnc1-c1nc(O)c(O)c(C(=O)N[C@H](C)C2CCCCC2)n1 [Compound 23, (R)-N-(1-cyclohexylethyl)-5,6-dihydroxy-2-(3-methylpyridin-2-yl)pyrimidine-4-carboxamide] | 203 nM | 200 nM | 1.2 | 5.1 | 2.8 | 2.3 | 1.0 | 0.7 | 1.4 | 8.6 | 20.5 µM | > 25% |
| C[C@@H](NC(=O)c1nc(-c2cc(Cl)ccn2)nc(O)c1O)C1CCCCC1 [Compound 26, (R)-2-(4-chloropyridin-2-yl)-N-(1-cyclohexylethyl)-5,6-dihydroxypyrimidine-4-carboxamide] | 121 nM | – | 0.7 | 0.2 | 0.8 | 0.5 | – | 0.3 | 0.1 | – | 1.5 µM | > 25% |
| COc1ccnc(-c2nc(O)c(O)c(C(=O)N[C@H](C)C3CCCCC3)n2)c1 [Compound 28, (R)-N-(1-cyclohexylethyl)-5,6-dihydroxy-2-(4-methoxypyridin-2-yl)pyrimidine-4-carboxamide] | 40.5 nM | 41 nM | 2.3 | 1.4 | 2.8 | 3.7 | 0.1 | 0.8 | 0.8 | 2.9 | 22 µM | > 25% |
| C[C@@H](NC(=O)c1nc(-c2nccc3ccccc23)nc(O)c1O)C1CCCCC1 [Compound 31, (R)-N-(1-cyclohexylethyl)-5,6-dihydroxy-2-(isoquinolin-1-yl)pyrimidine-4-carboxamide] | 100 nM | 100 nM | 0.9 | 1.6 | 2.0 | 2.1 | 1.3 | 0.7 | 1.3 | 9.8 | 3.5 µM | > 25% |
